Legend:
[1] = Phase II psoriasis study: plasma PK samples; assay type: in vivo, human; conditions: of 860 samples from patients receiving an active dose
Description: Pharmacokinetics: Sparse PK sampling throughout the duration of the study was intended to be used to develop a population PK model and to estimate population PK parameters (i.e., apparent clearance [CL/F], apparent volume of distribution [V/F]) of systemic exposure, according to the Time and Events Table. Plasma analysis was performed under the management of Bioanalysis, Immunogenicity & Biomarkers, IVIVT, PTS, GSK.
The bioanalytical method used to support the study was a fully validated Liquid Chromatography-Tandem Mass Spectrometry (LC-MS/MS) method in accordance with FDA/EU/MHLW guidelines [US Department of Health and Human Services, Food and Drug Administration Draft Guidance for Industry: Bioanalytical Method Validation, 2013] [European Medicines Agency Guideline on Bioanalytical Method Validation, 2011] [Japanese Ministry of Health Guideline on Bioanalytical Method Validation in Pharmaceutical Development, 2013].

[2] = minipig 28 day toxicology, formulation F (NOAEL); assay type: in vivo; conditions: 3% [60 mg/kg/day]
[3] = system: adult subjects with psoriasis; experiment: Phase II/2b psoriasis study: safety and tolerability; assay type: in vivo, human
Description: Safety was assessed by the monitoring and recording of all AEs and serious adverse events (SAEs); evaluation of local (application site) tolerability; monitoring of hematology (including peripheral blood Immunophenotyping and Immunoglobulins), clinical chemistry, and vital signs; and the performance of ECGs and physical examinations.
Safety assessments included incidence, frequency and severity of AEs, evaluation of local (application-site) tolerability, clinical laboratory parameters, vital signs, electrocardiogram changes, and physical examinations. An unblinded Independent Data Monitoring Committee monitored patient safety. Investigators assessed the overall degree of irritation at the application sites using a scale of 0 (no irritation) to 4 (very severe/strong reaction) at each study visit. A score of 3 or 4 was reported as an AE. Study treatment was discontinued if a score of 4 was noted. Subject-reported tolerability was assessed using a 5-point tolerability scale of 0 (none) to 4 (strong/severe) to assess the presence and degree of burning/stinging and itching at the application site within 2 hours following application of tapinarof or vehicle.

[4] = Phase II AD study: plasma PK samples; assay type: in vivo, human; conditions: for concentration at 1 week: Week 1; for concentration at 2 week: Week 2; for concentration at 4 week: Week 4; for concentration at 8 week: Week 8
Description: Pharmacokinetics: A total of 5 blood samples for PK analysis of GSK2894512 were collected from each subject over the clinic visits at Weeks 1, 2, 4, 8, and 12. Plasma analysis was performed under the management of Bioanalytical Science and Toxicokinetics, DMPK, GSK.
Pharmacokinetics: Subjects with atopic dermatitis, BSA involvement >5% and <35%, excluding scalp, and Baseline IGA score of >3 at Baseline, participated in this study in which 2 concentrations of Tapinarof cream (0.5% and 1%) and a vehicle control were evaluated following application to all AD lesions (except on the scalp) once or twice daily for 12 weeks.
A total of 5 blood samples for PK analysis of Tapinarof were collected from each subject at the following clinic visits: Weeks 1, 2, 4, 8, and 12. Subjects were advised to provide PK samples during each of the following 3 time windows: 1 to 3 hours post application, 3 to 6 hours post application, and 6 to 12 hours post application.

[5] = rat subcutaneous 13-week toxicology study (NOAEL) and predicted safety margin; conditions: in vivo, sc, rat subcutaneous 3 mg/kg/day, read-out: NOAEL AUC(0-24)
Source text: The predicted maximum systemic exposure to Tapinarof in this study was expected to be lower than the no observed adverse effects level (NOAEL) identified in nonclinical toxicology studies.

[6] = all cases in active treatment groups
[7] = pooled active treatment groups (n=152)
[8] = pooled tapinarof groups (n=152)
[9] = human, plasma, topical, 0.5 % cream BID, Subject 111301, 0.5% BID
[10] = human, plasma, topical, 0.5 % cream BID, Subject 316851, 0.5% BID
[11] = human, plasma, topical, 1 % cream BID, Subject 110406, 1% BID
[12] = human, plasma, topical, 1 % cream BID, Subject 110604, 1% BID

## CC(C)c1c(O)cc(/C=C/c2ccccc2)cc1O [Tapinarof, 3,5-Dihydroxy-4-isopropyl-trans-stilbene]
[1]
  plasma samples below the Lower Limit of Quantitation (LLQ): 649 samples
  plasma samples quantified: 157 samples
[2]
  gender averaged NOAEL Cmax: 0.84 ng/mL
[3]; 0.5% BID
  Application-site dermatitis: 0 n
  Dermatitis allergic: 0 n
  Miliaria: 0 n
  Urticaria: 0 n
  headache: 0 n
[3]; 0.5% QD
  Acne: 0 n
  Dermatitis allergic: 0 n
  Serious TEAEs: 0 n
  Urticaria: 0 n
  Vomiting: 0 n
[3]; 1% BID
  Miliaria: 0 n
  Urticaria: 0 n
  Vomiting: 0 n
[3]; 1% BID, listed as GSK2894512
  Nasopharyngitis: 1 n
  folliculitis: 8 n
[3]; 1% QD
  Acne: 0 n
  Dermatitis allergic: 0 n
  Nasopharyngitis: 0 n
  Vomiting: 0 n
[3]; active treatment groups
  folliculitis, median duration (resolved events): 55 days
  folliculitis, median time to onset: 26 days
  headache, median duration: 3 days
  headache, median time to onset: 2.5 days
  nasopharyngitis, median duration: 12 days
  nasopharyngitis, median time to onset: 13 days
[3]; [6]
  contact dermatitis, median duration: 32 days
  contact dermatitis, median time to onset: 30 days
[3]; all in Tapinarof treatment groups, none treatment-related
  subjects with serious TEAEs: 7 subjects
[3]; [7]
  Nasopharyngitis: 5%
  Vomiting: 2%
  headache: 4%
  subjects permanently discontinuing treatment due to TEAEs: 10%
  subjects with TEAEs: 56%
  subjects with mild TEAEs: 27%
  subjects with moderate TEAEs: 22%
  subjects with severe TEAEs: 7%
  subjects with treatment-related TEAEs: 22%
  treatment-related monocyte count decreased: 1%
[3]; [8]
  contact dermatitis: 8%
  folliculitis: 13%
  treatment-related folliculitis: 10%
[3]; treatment groups pooled
  subjects with TEAEs considered related to treatment: 34 subjects
  subjects with at least one AE: 89 subjects
  subjects with at least one TEAE: 85 subjects
[4]; 0.5% BID
  subjects with plasma concentration >0.84 ng/mL (minipig NOAEL Cmax): 4 subjects
[4]; 0.5% QD
  subjects with plasma concentration >0.84 ng/mL (minipig NOAEL Cmax): 2 subjects
[4]; 1% BID
  subjects with plasma concentration >0.84 ng/mL (minipig NOAEL Cmax): 5 subjects
[4]; 1% QD
  subjects with plasma concentration >0.84 ng/mL (minipig NOAEL Cmax): 2 subjects
[4]; all Tapinarof groups, out of 247
  subjects with plasma concentration >0.84 ng/mL (minipig NOAEL Cmax): 13 subjects
[4]; [9]
  concentration at 1 week: 6.09 ng/mL
  concentration at 2 week: 0.438 ng/mL
  concentration at 4 week: 0.649 ng/mL
[4]; [10]
  concentration at 1 week: 0.362 ng/mL
  concentration at 2 week: 0.106 ng/mL
  concentration at 8 week: 1.93 ng/mL
[4]; [11]
  concentration at 1 week: 0.233 ng/mL
  concentration at 2 week: 0.347 ng/mL
  concentration at 4 week: 4.9 ng/mL
  concentration at 8 week: 0.514 ng/mL
[4]; [12]
  concentration at 1 week: 1.48 ng/mL
  concentration at 2 week: 0.266 ng/mL
  concentration at 4 week: 0.43 ng/mL
  concentration at 8 week: 0.0716 ng/mL
[4]; human, plasma, topical, 1 % cream BID, Subject 110604, 1% BID, Week 12
  concentration at 12 week: 0.311 ng/mL
[4]; human, plasma, topical, 1 % cream BID, Subject 316651, 1% BID
  concentration at 2 week: 181 ng/mL
[4]; of 753 samples from subjects on active treatment, LLOQ 0.04 ng/mL
  quantifiable plasma samples: 348
[5]
  AUC(0-t): 99 ng·h/mL
